Measured values published in paper PMC3812159, “A Comparative Analysis of the Ubiquitination Kinetics of Multiple Degrons to Identify an Ideal Targeting Sequence for a Proteasome Reporter” (PLoS ONE, 2013).
Where two headings read alike, the source gives them in different places. Residues, ends and D or L forms follow the SMILES beside them. *: point of attachment. 5FAM = O=C1OC2(c3ccc(O)cc3Oc3cc(O)ccc32)c2ccc(C(=O)*)cc21

Assays:
[1] = test system: TAZ-based substrate ubiquitination (a target of the SCF^βTrCP E3 ligase); assay: Ubiquitin pull down of TAZ-based substrate with inhibitors of the E1-E3 cascade; type: biochemical; details: 2 hours at 37°C with inhibitor, gel, concentrations only in Figure 5b
Method: Figure 5 Variations in E3 ligase activity result in fluxuations in degron-based substrate ubiquitination. (A) To evaluate the impact of different levels of E3 ligase activity, the four top performing degron-based substrates (β-Catenin, Bonger, iNOS, and p53) were incubated in lysates from four different cell lines (HeLa, U937, THP-1, and HL60) in the ubiquitin pull down assay. Further, the assay was supplemented with wild type ubiquitin to examine polyubiquitin chain formation. All reaction mixtures were incubated for 2 hours at 37°C prior to continuation with the pull down assay. (B) The effects of a NEDD8 inhibitor (MLN-4924) and an E1 inhibitor (PYR-41) were examined on the TAZ-based substrate (a target of the SCF^βTrCP E3 ligase). The ubiquitin pull down was performed as previously described with the reactions incubated for 2 hours with the listed inhibitor concentrations at 37°C prior to continuation with the pull down assay. […]
To perform a more precise analysis of the impact of variations in E3 ligase activity on degron-based substrate ubiquitination and to identify any issues with peptide specificity, the second route of experimentation was the application of known inhibitors of the E1–E3 enzymatic cascade. […] To examine the effects of partially inhibiting SCF^βTrCP, TAZ-based substrate ubiquitination was assessed in the presence and absence of this inhibitor (Figure 5b).

[2] = test system: endogenous proteases and peptidases found in the S100 lysates
Method: (§1) The in vitro ubiquitination assay was carried out at the indicated times at 37°C in a total reaction volume of 25 µL containing assay buffer (10 mM Tris-HCl pH 7.6 and 5 mM MgCl2) with 2 mM DTT, 20 µg/mL ubiquitin aldehyde (Boston Biochem), 400 µg/mL methylated ubiquitin (Enzo Life Sciences), 1×ATP energy regenerating solution (ATP-ERS, Boston Biochem), 100 µM of the proteasome inhibitor MG-132 (EMD Chemicals), 2 mg/mL HeLa S100 cytosolic lysates as the source of E1, E2, and E3 enzymes, 750 ng of indicated peptide substrate, and inhibitors Complete ULTRA and PhosSTOP (Roche). Reactions were halted by addition of 2× tricine sample buffer (Bio-Rad) and subsequent boiling. Samples were loaded onto SDS page gels (precast 16.5% Mini PROTEAN Tris-Tricine, Bio-Rad) using 1× tris-tricine running buffer and visualized with a Typhoon Imager (GE Healthcare Life Sciences). Gels were quantified using ImageJ (US National Institute of Health) by comparing sample intensity to unreacted parent peptide intensity, which is not depicted in the gels.
(§2) Ubiquitin pull down assays were performed similarly to the in vitro ubiquitination assay as described above, with the exception of a total volume of 100 µL and 4.2 µg of peptide substrate. At the end of the indicated times, samples were incubated with Control-Agarose beads (LifeSensors), diluted in TBS-T buffer (20 mM Tris-HCl pH 8.0, 150 mM NaCl, and 0.1% v/v Tween-20), for 60 min on a tube rotator at 4°C. Samples were subsequently centrifuged at 1800×g for 5 min to pellet and remove control beads. The supernatant was transferred to solution of Agarose-TUBES1 (LifeSensors) diluted in TBS-T and incubated overnight on a tube rotator at 4°C. Ubiquitin-bound beads were washed 5× with TBS-T and then the samples were eluted off of the bead with 2× tricine sample buffer, boiled for 5 min, and then isolated by centrifugation for 5 min at 13000×g. Samples were loaded onto an SDS PAGE gel, electrophoresed, visualized and quantified as described above.
(§3) The series of ordinary differential equations were solved in MATLAB using ODE15s and the boundary conditions defined in equations S1–S6. Kinetic rate constants were determined using a Markov Chain Monte Carlo (MCMC) algorithm in MATLAB by minimizing the cumulative sum of the squared deviations (cSSD), as defined by equations S8–S9, between the calculated and experimental data similar to previous work by Cirit et. al. [23].
(§4) To accomplish this objective, a kinetic model was developed to describe the step-wise ubiquitination of the degron-based substrates. The goal of this model was to both determine the reaction kinetics for ubiquitin transfer to the degron-based substrates and distinguish polyubiquitination from multi-monoubiquitination. […] Each step in the reaction was described by a corresponding rate constant (k1–k9). Due to the presence of the deubiquitinating enzyme (DUB) inhibitor ubiquitin aldehyde, substrate deubiquitination was neglected. Further, the proteasome inhibitor MG-132 was added at an appropriate amount to neglect proteasome-mediated degradation of the substrates.

[3] = test system: HeLa S100 cytosolic lysates as the source of E1, E2, and E3 enzymes; assay: Ubiquitin pull down assay with methylated ubiquitin, multi-monoubiquitination kinetic model; type: biochemical; details: for k1/k5, mono-ubiquitination vs. degradation of unmodified substrate: ratio of fitted rate constants, >1 favours ubiquitination, <1 degradation; for substrate ubiquitination, fluorescent intensity compared to unmodified substrate: ubiquitin pull down, methylated ubiquitin, time points up to 240 min, n = 3
From the text: A second model based on substrate multi-monoubiquitination was developed and evaluated. This model assumed that the generation of di-, tri-, and tetra-ubiquitinated species was the result of multiple methylated ubiquitins being conjugated to the multiple available lysines found on the degron-based substrate (Figure 3a). As opposed to the polyubiquitination model, the multi-monoubiquitination model accurately fit the data for all eight degron-based substrates (Figure 3b–d, Figure S4 in File S1, Table 2). Using this model, kinetic rate constants for all ubiquitination (k1 for mono-, k2 for di-, k3 for tri-, and k4 for tetra-) and peptidase-dependent degradation steps (Table 2) were calculated. The multi-monoubiquitination model nicely corresponded to the observed results in Figure 2. […] The model also captured the preference for di-ubiquitination of the Cyclin D1 degron (k2 is two-fold greater than k1) and the equal preference of mono- and di-ubiquitination states found in the HIF-1α degron (k1 of 2.6 and k2 of 3.0). Further, the similar behavior and observed kinetics for IFNAR and TAZ degrons were mostly likely due to the fact that these degrons are recognized by the same E3 ligase, SCF^βTrCP (Table 1). To test the robustness of the multi-monoubiquitination model, a ninth substrate based on the degron from the protein β-Catenin was assessed. This substrate was selected because it is ubiquitinated by the same E3 ligase as TAZ and IFNAR1, SCF^βTrCP. The model accurately fit the data for the multi-monoubiquitination of the β-Catenin degron-based substrate with similar rate constants compared to the TAZ and IFNAR1-based substrates (Table 2). Finally, it was important to assess the validity of the model by addressing the relative goodness of fit between the experimental data and the model predictions as determined from the multi-monoubiquitination model. For this particular analysis it was decided to calculate the sample Pearson correlation coefficient (Eq. S10 in File S1), a widely used metric to measure the dependence between two variables. A correlation coefficient was calculated between the model predictions and experimental data for mono-, di-, tri-, and tetra-ubiquitinated substrate for all nine degron-based substrates (Table S1 in File S1). As per convention, a positive value approaching 1 corresponds to a very good fit, which is observed for all nine substrates indicating a good fit between model and data.

[4] = test system: endogenous proteases and peptidases found in the S100 lysates; assay: Peptidase-dependent degradation rate constants from the multi-monoubiquitination model; details: values multiplied by 10^3; for k5, rate constant for peptidase-dependent degradation of unmodified parent substrate: HeLa S100 cytosolic lysates 2 mg/mL, proteasome inhibited by 100 µM MG-132, pH 7.6, 37°C, 12-14 µM peptide, model-fitted (MCMC), degraded substrate not measured; for k6, rate constant for peptidase-dependent degradation of mono-ubiquitinated substrate / k7, rate constant for peptidase-dependent degradation of di-ubiquitinated substrate / k8, rate constant for peptidase-dependent degradation of tri-ubiquitinated substrate / k9, rate constant for peptidase-dependent degradation of tetra-ubiquitinated substrate: as k5, HeLa S100 lysates, MG-132, 37°C, model-fitted
Method: as §1, §2, §3, §4

Compound | effect of inhibitor on ubiquitination of the TAZ-based substrate [1] | k6, rate constant for peptidase-dependent degradation of mono-ubiquitinated substrate [2] | k7, rate constant for peptidase-dependent degradation of di-ubiquitinated substrate [2] | k8, rate constant for peptidase-dependent degradation of tri-ubiquitinated substrate [2] | k9, rate constant for peptidase-dependent degradation of tetra-ubiquitinated substrate [2] | k1/k5, mono-ubiquitination vs. degradation of unmodified substrate [3] | substrate ubiquitination, fluorescent intensity compared to unmodified substrate [3] | k5, rate constant for peptidase-dependent degradation of unmodified parent substrate [4] | k6, rate constant for peptidase-dependent degradation of mono-ubiquitinated substrate [4] | k7, rate constant for peptidase-dependent degradation of di-ubiquitinated substrate [4] | k8, rate constant for peptidase-dependent degradation of tri-ubiquitinated substrate [4] | k9, rate constant for peptidase-dependent degradation of tetra-ubiquitinated substrate [4]
NS(=O)(=O)OC[C@@H]1C[C@@H](n2ccc3c(N[C@H]4CCc5ccccc54)ncnc32)C[C@@H]1O [MLN-4924] | slightly impaired |  |  |  |  |  |  |  |  |  |  | 
KKYSSQTSQDSGNYSNK(FAM)KKK [IFNAR1, fluorescein-tagged degron-based peptide substrate from IFNAR1, E3 ligase SCF^βTrCP] |  | 0.01 (1/min)*10^3 | 0.01 (1/min)*10^3 | 0.01 (1/min)*10^3 | 0.1 (1/min)*10^3 | 0.96 |  |  |  |  |  | 
KPFLNGGPYHSREQSTDSGLGLGSYK(FAM)KKK [TAZ, fluorescein-tagged degron-based peptide substrate from TAZ, E3 ligase SCF^βTrCP] |  | 1.5 (1/min)*10^3 | 0.1 (1/min)*10^3 | 0.5 (1/min)*10^3 | 0.1 (1/min)*10^3 | 2.65 |  |  |  |  |  | 
K-(PEG)-KEEKDINNNVKKTK(FAM)KKK [iNOS, fluorescein-tagged degron-based peptide substrate from iNOS, E3 ligase unknown] |  | 1.0 (1/min)*10^3 | 0.01 (1/min)*10^3 | 0.01 (1/min)*10^3 | 0.3 (1/min)*10^3 | 1.62 | higher ubiquitination |  |  |  |  | 
CC(=O)N[C@@H](CCCCN)C(=O)N1CCC[C@H]1C(=O)N[C@@H](CC(C)C)C(=O)N[C@@H](CO)C(=O)N[C@@H](CO)C(=O)N[C@@H](CO)C(=O)N[C@H](C(=O)N1CCC[C@H]1C(=O)N[C@@H](CO)C(=O)N[C@@H](CCC(N)=O)C(=O)N[C@@H](CCCCN)C(=O)N[C@H](C(=O)N[C@@H](Cc1ccc(O)cc1)C(=O)N[C@@H](CCC(N)=O)C(=O)NCC(=O)N[C@@H](CO)C(=O)N[C@@H](Cc1ccc(O)cc1)C(=O)NCC(=O)N[C@@H](Cc1ccccc1)C(=O)N[C@@H](CCCNC(=N)N)C(=O)N[C@@H](CC(C)C)C(=O)NCC(=O)N[C@@H](CCCCNC(=O)c1ccc2c(c1)C(=O)OC21c2ccc(O)cc2Oc2cc(O)ccc21)C(=O)N[C@@H](CCCCN)C(=O)N[C@@H](CCCCN)C(=O)N[C@@H](CCCCN)C(N)=O)[C@@H](C)O)C(C)C [p53] (Ac-KPLSSSVPSQKTYQGSYGFRLGK(5FAM)KKK-NH2) |  | 0.01 (1/min)*10^3 | 0.01 (1/min)*10^3 | 0.01 (1/min)*10^3 | 0.33 (1/min)*10^3 |  |  |  |  |  |  | 
CC[C@H](C)[C@H](NC(=O)[C@H](Cc1ccc(O)cc1)NC(=O)[C@@H]1CCCN1C(=O)[C@H](C)NC(=O)[C@H](CC(C)C)NC(=O)[C@H](C)NC(=O)[C@H](CCC(=O)O)NC(=O)[C@H](CC(C)C)NC(=O)[C@H](CC(=O)O)NC(=O)[C@H](CC(C)C)NC(=O)[C@H](CC(=O)O)NC(=O)[C@H](C)NC(=O)[C@H](CO)NC(=O)[C@H](C)NC(C)=O)C(=O)N1CCC[C@H]1C(=O)N[C@@H](C)C(=O)N[C@@H](CC(=O)O)C(=O)N[C@@H](CC(=O)O)C(=O)N[C@@H](CC(=O)O)C(=O)N[C@@H](Cc1ccccc1)C(=O)N[C@@H](CCC(N)=O)C(=O)N[C@@H](CC(C)C)C(=O)N[C@@H](CCCNC(=N)N)C(=O)N[C@@H](CCCCNC(=O)c1ccc2c(c1)C(=O)OC21c2ccc(O)cc2Oc2cc(O)ccc21)C(=O)N[C@@H](CCCCN)C(=O)N[C@@H](CCCCN)C(=O)N[C@@H](CCCCN)C(N)=O [HIF-1α] (Ac-ASADLDLEALAPYIPADDDFQLRK(5FAM)KKK-NH2) |  |  |  |  |  |  |  | 7.0 (1/min)*10^3 | 0.1 (1/min)*10^3 | 0.1 (1/min)*10^3 | 0.4 (1/min)*10^3 | 0.8 (1/min)*10^3
CC(=O)N[C@@H](CCCCN)C(=O)N[C@H](C(=O)N[C@@H](CCCNC(=N)N)C(=O)NCC(=O)N[C@H](C(=O)N[C@@H](CCC(=O)O)C(=O)N[C@@H](CCC(=O)O)C(=O)N[C@H](C(=O)N[C@@H](C)C(=O)N[C@@H](CCC(=O)O)C(=O)NCC(=O)N[C@H](C(=O)N[C@H](C(=O)N[C@@H](CC(C)C)C(=O)N[C@@H](CC(C)C)C(=O)N[C@@H](CCCNC(=N)N)C(=O)N[C@@H](CCCNC(=N)N)C(=O)N[C@@H](CCCNC(=N)N)C(=O)NCC(=O)N[C@@H](CC(N)=O)C(=O)N[C@@H](CCCCNC(=O)c1ccc2c(c1)C(=O)OC21c2ccc(O)cc2Oc2cc(O)ccc21)C(=O)N[C@@H](CCCCN)C(=O)N[C@@H](CCCCN)C(=O)N[C@@H](CCCCN)C(N)=O)C(C)C)C(C)C)C(C)C)C(C)C)[C@@H](C)O [Bonger] (Ac-KTRGVEEVAEGVVLLRRRGNK(5FAM)KKK-NH2) |  |  |  |  |  |  |  | 4.0 (1/min)*10^3 | 0.01 (1/min)*10^3 | 1.0 (1/min)*10^3 | 0.01 (1/min)*10^3 | 0.01 (1/min)*10^3
KAAEEEEVSLASTPTDVRDVDIK(FAM)KKK [Cyclin D1, fluorescein-tagged degron-based peptide substrate from Cyclin D1, E3 ligase SCF^FBX4] |  | 0.01 (1/min)*10^3 | 0.01 (1/min)*10^3 | 0.01 (1/min)*10^3 | 1.8 (1/min)*10^3 | 0.47 | lowest degree of ubiquitination |  |  |  |  | 
K-(PEG)-DVQKADVSSTGQGIDSK(FAM)KKK [SRC3, fluorescein-tagged degron-based peptide substrate from SRC3, E3 ligase SPOP] |  | 0.01 (1/min)*10^3 | 0.01 (1/min)*10^3 | 0.01 (1/min)*10^3 | 0.33 (1/min)*10^3 |  | lowest degree of ubiquitination |  |  |  |  | 
CCOC(=O)c1ccc(N2NC(=O)/C(=C/c3ccc([N+](=O)[O-])o3)C2=O)cc1 [PYR-41] | reduced ubiquitination |  |  |  |  |  |  |  |  |  |  | 
